From patent US8889591B2, “Herbicidal compositions comprising 4-amino-3-chloro-5-fluoro-6-(4-chloro-2-fluoro-3-methoxyphenyl)pyridine-2-carboxylic acid or a derivative thereof and bromobutide, daimuron, oxaziclomefone or pyributicarb” (Dow Agrosciences LLC, priority 2012, dated 2014)

How the values were obtained:
ECHOR = experiment: In-water applied greenhouse weed control, transplanted paddy rice system; assay type: in vivo, Echinochloa oryzoides (Ard.) Fritsch; conditions: in-water application
Method: (§1) Weed seeds or nutlets of the desired test plant species were planted in puddled soil (mud) prepared by mixing a shredded, non-sterilized mineral soil (50.5 percent silt, 25.5 percent clay, and 24 percent sand, with a pH of about 7.6 and an organic matter content of about 2.9 percent) and water at a 1:1 volumetric ratio. The prepared mud was dispensed in 365 mL aliquots into 16-ounce (oz.) non-perforated plastic pots with a surface area of 86.59 square centimeters (cm^2) leaving a headspace of 3 centimeters (cm) in each pot. Mud was allowed to dry overnight prior to planting or transplanting. Rice seeds were planted in Sun Gro MetroMix® 306 planting mixture, which typically has a pH of 6.0 to 6.8 and an organic matter content of about 30 percent, in plastic plug trays. Seedlings at the second or third leaf stage of growth were transplanted into 840 mL of mud contained in 32-oz. non-perforated plastic pots with a surface area of 86.59 cm^2 4 days prior to herbicide application. The paddy was created by filling the headspace of the pots with 2.5 to 3 cm of water. When required to ensure good germination and healthy plants, a fungicide treatment and/or other chemical or physical treatment was applied. The plants were grown for 4-22 days in a greenhouse with an approximate 14 h photoperiod which was maintained at about 29° C. during the day and 26° C. during the night. Nutrients were added as Osmocote® (19:6:12, N:P:K+ minor nutrients) at 2 g per 16-oz. pot and 4 g per 32-oz. pot. Water was added on a regular basis to maintain the paddy flood, and supplemental lighting was provided with overhead metal halide 1000-Watt lamps as necessary. The plants were employed for testing when they reached the first through fourth true leaf stage.
(§2) Treatments consisted of the acid or esters of 4-amino-3-chloro-5-fluoro-6-(4-chloro-2-fluoro-3-methoxy-phenyl)pyridine-2-carboxylic acid (compound A) each formulated as an SC and various herbicidal components alone and in combination. Forms of compound A were applied on an acid equivalent basis.
(§3) Other herbicidal components were applied on an active ingredient basis and included daimuron formulated as an EC, bromobutide (technical grade material), and oxaziclomefone (technical grade material).
(§4) Treatment requirements for each compound or herbicidal component were calculated based upon the rates being tested, the concentration of active ingredient or acid equivalent in the formulation, an application volume of 2 mL per component per pot, and an application area of 86.59 cm^2 per pot.
(§5) For formulated compounds, a measured amount was placed in an individual 100 or 200 mL glass vial and was dissolved in a volume of 1.25% (v/v) Agri-Dex® crop oil concentrate to obtain application solutions.
(§6) For technical grade compounds, a weighed amount was placed in an individual 100 to 200 mL glass vial and was dissolved in a volume of acetone to obtain concentrated stock solutions. […] The concentrated stock solutions obtained were diluted with an equivalent volume of an aqueous mixture containing 2.5% (v/v) crop oil concentrate so that the final application solutions contained 1.25% (v/v) crop oil concentrate.
(§7) Applications were made by injecting, with a pipetter, appropriate amounts of the application solutions, individually and sequentially, into the aqueous layer of the paddy. Control plants were treated in the same manner with the solvent blank. Applications were made so that all treated plant material received the same concentrations of acetone and crop oil concentrate.
(§8) The treated plants and control plants were placed in a greenhouse as described above and water was added as needed to maintain a paddy flood. After approximately 3 weeks the condition of the test plants as compared with that of the untreated plants was determined visually and scored on a scale of 0 to 100 percent where 0 corresponds to no injury or growth inhibition and 100 corresponds to complete kill. […]

CYPRO = experiment: as above; assay type: in vivo, Cyperus rotundus L.; conditions: in-water application
Method: as §1, §2, §3, §4, §5, §6, §7, §8

[1] = Compound A Benzyl Ester 8 gae/ha alone
[2] = Compound A Benzyl Ester 16 gae/ha alone
[3] = Compound A Benzyl Ester 32 gae/ha alone

`COc1c(Cl)ccc(-c2nc(C(=O)OCc3ccccc3)c(Cl)c(N)c2F)c1F` [Compound A Benzyl Ester] was tested, and the “Visual Weed Control (%) - 21 DAA ECHOR Obs” value (ECHOR; [1]) was 8%, the “Visual Weed Control (%) - 21 DAA ECHOR Obs” value (ECHOR; [2]) was 5% and the “Visual Weed Control (%) - 21 DAA ECHOR Obs” value (ECHOR; [3]) was 13%. The “Visual Weed Control (%) - 19 DAA CYPRO Obs” value (CYPRO; [1]) was 50%, the “Visual Weed Control (%) - 21 DAA CYPRO Obs” value (CYPRO; Compound A Benzyl Ester 8.75 gae/ha alone) was 60% and the “Visual Weed Control (%) - 19 DAA CYPRO Obs” value (CYPRO; [2]) was 85%. The “Visual Weed Control (%) - 19 DAA CYPRO Obs” value (CYPRO; [3]) was 90%.
